Source: the NIST ThermoML archive (doi:10.1021/je060184i)
± gives the expanded uncertainty stated by the source.

Assays:
[1] = Liquid, Closed cell (Static) method
[2] = excess molar enthalpy (molar enthalpy of mixing); xn = mol fraction of the nth substance listed; conditions: 298.15 K, 101 kPa, Liquid, Flow calorimetry

| Structure (SMILES) | vapor or sublimation pressure ([1]; 273.15 K) [kPa] | vapor or sublimation pressure ([1]; 283.15 K) [kPa] | vapor or sublimation pressure ([1]; 293.15 K) [kPa] | vapor or sublimation pressure ([1]; 298.15 K) [kPa] | vapor or sublimation pressure ([1]; 303.15 K) [kPa] | vapor or sublimation pressure ([1]; 313.15 K) [kPa] | vapor or sublimation pressure ([1]; 323.15 K) [kPa] | vapor or sublimation pressure ([1]; 333.15 K) [kPa] | vapor or sublimation pressure ([1]; 343.15 K) [kPa] | vapor or sublimation pressure ([1]; 353.15 K) [kPa] | vapor or sublimation pressure ([1]; 363.15 K) [kPa] | further results |
| --- | --- | --- | --- | --- | --- | --- | --- | --- | --- | --- | --- | --- |
| C1CCCCC1 [cyclohexane] | 3.73 ± 0.03 | 6.357 ± 0.043 | 10.37 ± 0.064 | 13.04 ± 0.078 | 16.26 ± 0.096 | 24.65 ± 0.14 | 36.24 ± 0.2 | 51.85 ± 0.28 | 72.39 ± 0.39 | 98.85 ± 0.53 | 132.33 ± 0.71 | vapor or sublimation pressure ([1]; 263.15 K): 2.082 ± 0.023 kPa |
| CCCCCCC [heptane] | 1.531 ± 0.02 | 2.76 ± 0.025 | 4.736 ± 0.034 | 6.104 ± 0.04 | 7.787 ± 0.049 | 12.32 ± 0.07 | 18.85 ± 0.1 | 27.99 ± 0.15 | 40.43 ± 0.21 | 56.99 ± 0.29 | 78.59 ± 0.4 | – |
| C=CCCCC [hex-1-ene] | 7.687 ± 0.051 | 12.64 ± 0.076 | 19.98 ± 0.12 | 24.77 ± 0.14 | 30.46 ± 0.17 | 44.98 ± 0.25 | 64.6 ± 0.35 | 90.44 ± 0.49 | 123.79 ± 0.67 | 165.99 ± 0.89 | 218.5 ± 1.2 | – |
| C=CCCCC [hex-1-ene] + CCCOC(C)=O | – | – | – | – | – | – | – | – | – | – | – | excess molar enthalpy ([2]; x2 = 0.0943): 0.062 ± 0.00239 kcal/mol; excess molar enthalpy ([2]; x2 = 0.2122): 0.114 ± 0.00263 kcal/mol; excess molar enthalpy ([2]; x2 = 0.3238): 0.141 ± 0.00263 kcal/mol; excess molar enthalpy ([2]; x2 = 0.418): 0.151 ± 0.00263 kcal/mol; excess molar enthalpy ([2]; x2 = 0.4609): 0.152 ± 0.00263 kcal/mol; excess molar enthalpy ([2]; x2 = 0.4822): 0.152 ± 0.00263 kcal/mol; excess molar enthalpy ([2]; x2 = 0.5032): 0.151 ± 0.00263 kcal/mol; excess molar enthalpy ([2]; x2 = 0.5241): 0.15 ± 0.00263 kcal/mol; excess molar enthalpy ([2]; x2 = 0.5449): 0.148 ± 0.00263 kcal/mol; excess molar enthalpy ([2]; x2 = 0.6178): 0.139 ± 0.00263 kcal/mol; excess molar enthalpy ([2]; x2 = 0.7186): 0.117 ± 0.00263 kcal/mol; excess molar enthalpy ([2]; x2 = 0.8117): 0.0874 ± 0.00263 kcal/mol; excess molar enthalpy ([2]; x2 = 0.9076): 0.0475 ± 0.00239 kcal/mol |
| CCCOC(C)=O [propyl ethanoate] | 1.006 ± 0.018 | 1.909 ± 0.022 | 3.43 ± 0.029 | 4.514 ± 0.034 | 5.875 ± 0.041 | 9.645 ± 0.06 | 15.25 ± 0.09 | 23.33 ± 0.13 | 34.64 ± 0.19 | 50.07 ± 0.28 | 70.64 ± 0.38 | vapor or sublimation pressure ([1]; 263.15 K): 0.4981 ± 0.01 kPa |
| CCCOC(C)=O [propyl ethanoate] + C1CCCCC1 | – | – | – | – | – | – | – | – | – | – | – | excess molar enthalpy ([2]; x1 = 0.1031): 0.127 ± 0.00263 kcal/mol; excess molar enthalpy ([2]; x1 = 0.1888): 0.195 ± 0.00287 kcal/mol; excess molar enthalpy ([2]; x1 = 0.2926): 0.244 ± 0.00311 kcal/mol; excess molar enthalpy ([2]; x1 = 0.3829): 0.265 ± 0.00311 kcal/mol; excess molar enthalpy ([2]; x1 = 0.4249): 0.268 ± 0.00311 kcal/mol; excess molar enthalpy ([2]; x1 = 0.4667): 0.269 ± 0.00311 kcal/mol; excess molar enthalpy ([2]; x1 = 0.4876): 0.267 ± 0.00311 kcal/mol; excess molar enthalpy ([2]; x1 = 0.5084): 0.265 ± 0.00311 kcal/mol; excess molar enthalpy ([2]; x1 = 0.5827): 0.252 ± 0.00311 kcal/mol; excess molar enthalpy ([2]; x1 = 0.6881): 0.215 ± 0.00287 kcal/mol; excess molar enthalpy ([2]; x1 = 0.7883): 0.163 ± 0.00263 kcal/mol; excess molar enthalpy ([2]; x1 = 0.8945): 0.0901 ± 0.00263 kcal/mol |
| CCCOC(C)=O [propyl ethanoate] + CCCCCCC | – | – | – | – | – | – | – | – | – | – | – | excess molar enthalpy ([2]; x1 = 0.1087): 0.121 ± 0.00263 kcal/mol; excess molar enthalpy ([2]; x1 = 0.1348): 0.143 ± 0.00263 kcal/mol; excess molar enthalpy ([2]; x1 = 0.2399): 0.214 ± 0.00287 kcal/mol; excess molar enthalpy ([2]; x1 = 0.3594): 0.259 ± 0.00311 kcal/mol; excess molar enthalpy ([2]; x1 = 0.457): 0.273 ± 0.00311 kcal/mol; excess molar enthalpy ([2]; x1 = 0.5004): 0.273 ± 0.00311 kcal/mol; excess molar enthalpy ([2]; x1 = 0.5217): 0.272 ± 0.00311 kcal/mol; excess molar enthalpy ([2]; x1 = 0.5427): 0.27 ± 0.00311 kcal/mol; excess molar enthalpy ([2]; x1 = 0.5634): 0.266 ± 0.00311 kcal/mol; excess molar enthalpy ([2]; x1 = 0.5838): 0.262 ± 0.00311 kcal/mol; excess molar enthalpy ([2]; x1 = 0.6544): 0.244 ± 0.00311 kcal/mol; excess molar enthalpy ([2]; x1 = 0.7495): 0.202 ± 0.00287 kcal/mol; excess molar enthalpy ([2]; x1 = 0.8346): 0.15 ± 0.00263 kcal/mol; excess molar enthalpy ([2]; x1 = 0.92): 0.0807 ± 0.00263 kcal/mol; excess molar enthalpy ([2]; x1 = 0.9526): 0.0495 ± 0.00239 kcal/mol |
